Reference: US6355799B1, “Substituted benzene compounds, process for their preparation, and herbicidal and defoliant compositions containing them” (ISK Americas Incorporated, priority 1997, dated 2002)

What was measured:
Assay type in all cases: in vivo
[1] = tested on: upland rice (Oryza sp., var. Tebonnet, RICE); experiment: Pre-emerge test, crop safety; conditions: crop damage rating 0-100, 14 days after application
Outline: (§1)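 Compounds in acetone were track-sprayed at 187 l/ha, 15–1000 g ai/ha, onto sandy loam pots. Pre-emerge seeds were sown one day before spraying, with surface watering afterwards. Post-emerge plants were at the 2–3 leaf stage and sprayed with 0.25% v/v non-ionic surfactant. Injury was rated 0–100 at 14 days.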

[2] = tested on: field corn (Zea mays L., var. Dekalb 535, CORN); experiment: Pre-emerge test, crop safety; conditions: crop damage rating 0-100, 14 days after application
Outline: as §1

[3] = tested on: upland rice (Oryza sp., var. Tebonnet, RICE); experiment: Post-emerge test, crop safety; conditions: post-emerge, 14 days after application, rating scale 0-100
Outline: (§2)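 Visual ratings on a 0-100 scale (0 no damage, 100 all plants dead) were taken at 14 days after treatment. Rates of 15-1000 g ai/ha in acetone, 187 l/ha, were sprayed onto soil one day after planting (pre-emerge) or onto 2-3 leaf plants with 0.25% v/v surfactant (post-emerge).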

[4] = tested on: field corn (Zea mays L., var. Dekalb 535, CORN); experiment: Post-emerge test, crop safety; conditions: post-emerge, 14 days after application, rating scale 0-100
Outline: as §2

[5] = tested on: redroot pigweed (Amaranthus retroflexus, AMARE); experiment: Pre-emerge test, greenhouse herbicide activity screening; conditions: phytotoxicity rating 0-100, 14 days after application
Outline: as §1

[6] = tested on: barnyardgrass (Echinochloa crus-galli, ECHCG); experiment: as above; conditions: phytotoxicity rating 0-100, 14 days after application
Outline: as §2

[7] = tested on: large crabgrass (Digitaria sanguinalis, DIGSA); experiment: as above; conditions: phytotoxicity rating 0-100, 14 days after application
Outline: as §2

[8] = tested on: ivyleaf morningglory (Ipomoea hederacea, IPOHE); experiment: as above; conditions: phytotoxicity rating 0-100, 14 days after application
Outline: as §2

[9] = tested on: green foxtail (Setaria viridis, SETVI); experiment: as above; conditions: phytotoxicity rating 0-100, 14 days after application
Outline: as §2

[10] = tested on: lambsquarters (Chenopodium album, CHEAL); experiment: as above; conditions: phytotoxicity rating 0-100, 14 days after application
Outline: as §2

[11] = tested on: sicklepod (Cassia obtusifolia, CASOB); experiment: as above; conditions: phytotoxicity rating 0-100, 14 days after application
Outline: as §2

[12] = tested on: velvetleaf (Abutilon theophrasti, ABUTH); experiment: as above; conditions: phytotoxicity rating 0-100, 14 days after application
Outline: as §2

[13] = tested on: johnsongrass (Sorghum halepense, SORHA); experiment: as above; conditions: phytotoxicity rating 0-100, 14 days after application
Outline: as §2

[14] = tested on: redroot pigweed (Amaranthus retroflexus, AMARE); experiment: Post-emerge test, greenhouse herbicide activity screening; conditions: post-emerge, 14 days after application
Outline: as §1

[15] = tested on: barnyardgrass (Echinochloa crus-galli, ECHCG); experiment: as above; conditions: post-emerge, 14 days after application, rating scale 0-100
Outline: as §1

[16] = tested on: large crabgrass (Digitaria sanguinalis, DIGSA); experiment: as above; conditions: post-emerge, 14 days after application, rating scale 0-100
Outline: as §1

[17] = tested on: ivyleaf morningglory (Ipomoea hederacea, IPOHE); experiment: as above; conditions: post-emerge, 14 days after application, rating scale 0-100
Outline: as §1

[18] = tested on: green foxtail (Setaria viridis, SETVI); experiment: as above; conditions: post-emerge, 14 days after application, rating scale 0-100
Outline: as §1

[19] = tested on: lambsquarters (Chenopodium album, CHEAL); experiment: as above; conditions: post-emerge, 14 days after application, rating scale 0-100
Outline: as §1

[20] = tested on: sicklepod (Cassia obtusifolia, CASOB); experiment: as above; conditions: post-emerge, 14 days after application, rating scale 0-100
Outline: as §1

[21] = tested on: velvetleaf (Abutilon theophrasti, ABUTH); experiment: as above; conditions: post-emerge, 14 days after application, rating scale 0-100
Outline: as §1

COc1c(Cl)cc(F)c(-n2c(=O)cc(C(F)(F)F)n(C)c2=O)c1NC(=O)OC(c1ccccc1)C1CC1 (stereo not drawn) [4-46]
40: Pre-emerge Herbicidal Activity SETVI ([9]; 63 g ai/ha) | Pre-emerge Herbicidal Activity CASOB ([11]; 250 g ai/ha)
60: Pre-emerge Herbicidal Activity ECHCG ([6]; 250 g ai/ha) | Pre-emerge Herbicidal Activity SORHA ([13]; 250 g ai/ha)
10: Pre-emerge Herbicidal Activity RICE ([1]; 63 g ai/ha) | phytotoxicity rating RICE (crop damage) ([3]; 63 g ai/ha) | phytotoxicity rating CORN (crop damage) ([4]; 63 g ai/ha) | Pre-emerge Herbicidal Activity IPOHE ([8]; 63 g ai/ha) | phytotoxicity rating SETVI ([18]; 63 g ai/ha) | phytotoxicity rating SETVI ([18]; 250 g ai/ha)
95: Pre-emerge Herbicidal Activity DIGSA ([7]; 250 g ai/ha) | phytotoxicity rating CASOB ([20]; 250 g ai/ha) | phytotoxicity rating ABUTH ([21]; 63 g ai/ha)
20: Pre-emerge Herbicidal Activity ECHCG ([6]; 63 g ai/ha) | Pre-emerge Herbicidal Activity SORHA ([13]; 63 g ai/ha) | phytotoxicity rating ECHCG ([15]; 63 g ai/ha) | phytotoxicity rating DIGSA ([16]; 250 g ai/ha)
0: Pre-emerge Herbicidal Activity CORN ([2]; 63 g ai/ha) | phytotoxicity rating DIGSA ([16]; 63 g ai/ha)
30: Pre-emerge Herbicidal Activity CASOB ([11]; 63 g ai/ha) | phytotoxicity rating ECHCG ([15]; 250 g ai/ha)
5: Pre-emerge Herbicidal Activity CORN ([2]; 250 g ai/ha)
70: phytotoxicity rating RICE (crop damage) ([3]; 250 g ai/ha) | Pre-emerge Herbicidal Activity DIGSA ([7]; 63 g ai/ha)
50: Pre-emerge Herbicidal Activity RICE ([1]; 250 g ai/ha) | Pre-emerge Herbicidal Activity ABUTH ([12]; 63 g ai/ha)
80: phytotoxicity rating CORN (crop damage) ([4]; 250 g ai/ha) | Pre-emerge Herbicidal Activity AMARE ([5]; 63 g ai/ha) | phytotoxicity rating CASOB ([20]; 63 g ai/ha)
90: phytotoxicity rating IPOHE ([17]; 250 g ai/ha) | phytotoxicity rating CHEAL ([19]; 63 g ai/ha) | phytotoxicity rating ABUTH ([21]; 250 g ai/ha)
100: Pre-emerge Herbicidal Activity AMARE ([5]; 250 g ai/ha) | Pre-emerge Herbicidal Activity SETVI ([9]; 250 g ai/ha) | Pre-emerge Herbicidal Activity CHEAL ([10]; 63 g ai/ha) | Pre-emerge Herbicidal Activity CHEAL ([10]; 250 g ai/ha) | Pre-emerge Herbicidal Activity ABUTH ([12]; 250 g ai/ha) | phytotoxicity rating AMARE ([14]; 63 g ai/ha, rating scale 0-100 (0 no damage, 100 complete death)) | phytotoxicity rating AMARE ([14]; 250 g ai/ha, rating scale 0-100) | phytotoxicity rating IPOHE ([17]; 63 g ai/ha) | phytotoxicity rating CHEAL ([19]; 250 g ai/ha)
85: Pre-emerge Herbicidal Activity IPOHE ([8]; 250 g ai/ha)
